Experimental data: ChEMBL document CHEMBL1201862, “PubChem BioAssay data set” (2004)
Where “and” joins values, the source holds several entries; their conditions need not be identical. Identical values can stand only once.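 1) Cells in 96-well plates. 2) Compound, 48 h, 5 concentrations. 3) Linear interpolation between surrounding doses. 4) Unreached endpoint = highest concentration. Here, GI50 denotes the concentration required for 50% inhibition of growth.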 Calls of active or inactive are those of the source. No stated cut-off is given here; in the data, active = GI50 up to about 1.1 µM and inactive = higher.

Assays:
Test in all cases: NCI tumour cell line growth inhibition, 48 h
[1] = test system: SF-295
[2] = test system: DU-145
[3] = test system: PC-3
[4] = test system: U-251
[5] = test system: MDA-MB-435
[6] = test system: SNB-19
[7] = test system: KM12
[8] = test system: LOX IMVI
[9] = test system: HCT-116
[10] = test system: NCI-H23
[11] = test system: SR
[12] = test system: CAKI-1
[13] = test system: EKVX
[14] = test system: SK-MEL-5
[15] = test system: SNB-75
[16] = test system: SK-MEL-2
[17] = test system: MCF7
[18] = test system: IGROV-1
[19] = test system: HCC 2998

Measured: GI50

CCOC(=O)c1c(-c2ccc(O)c(OC)c2)c(C#N)c(=S)n(C2OC(COC(C)=O)C(OC(C)=O)C(OC(C)=O)C2OC(C)=O)c1-c1ccccc1 (stereo not given)
inactive: [1] > 100 µM | [2] 38.5 µM and 35.2 µM | [3] 43.8 µM and 31.4 µM | [4] > 100 µM | [5] 56.2 µM and 71 µM | [6] > 100 µM | [7] 45.4 µM and 50.8 µM | [8] 35.4 µM and 48 µM | [9] 47.9 µM and 63.2 µM | [10] 43.7 µM and 61.1 µM | [11] > 100 µM | [12] 65.2 µM | [13] 96.8 µM and 75.5 µM

CCOP(=O)(/C=C/n1ccc(N)nc1=O)OCC
inactive: [1] > 100 µM | [2] > 100 µM | [3] > 100 µM | [14] > 100 µM | [15] > 100 µM | [4] > 100 µM | [5] > 100 µM | [16] > 100 µM | [17] > 100 µM | [6] > 100 µM | [7] > 100 µM | [18] > 100 µM | [8] > 100 µM | [9] > 100 µM | [10] > 100 µM | [12] > 100 µM | [13] > 100 µM

NCCN1C(=O)CN=C(c2ccc(Cl)cc2)c2cc(Cl)ccc21
inactive: [1] 32.8 µM | [2] 17.1 µM | [3] 14.8 µM | [14] 16.9 µM | [15] 14.9 µM | [4] 16.8 µM | [5] 14.9 µM | [16] 16.3 µM | [6] 20.1 µM | [7] 17.2 µM | [18] 13.3 µM | [19] 16.5 µM | [8] 16.2 µM | [9] 16.2 µM | [10] 18.1 µM | [11] 17.9 µM | [12] 16.3 µM | [13] 26.2 µM

CC1CN=C(N(C)C(=O)Nc2ccc(Cl)c(Cl)c2)S1 (stereo not given)
inactive: [1] 30.9 µM | [2] 44.8 µM | [3] 27.4 µM | [14] 15.7 µM | [15] 19.1 µM | [4] 31.6 µM | [16] 17.4 µM | [17] 19.3 µM | [6] 80 µM | [7] 32.4 µM | [18] 27.2 µM | [19] 38.6 µM | [8] 17.5 µM | [9] 39 µM | [10] 32.3 µM | [11] 29.2 µM | [12] 7.53 µM | [13] 32.4 µM

NC(CCc1ncc(-c2ccccc2)s1)C(=O)O (stereo not given)
inactive: [1] > 100 µM | [14] > 100 µM | [15] 85.9 µM | [4] > 100 µM | [6] > 100 µM | [7] > 100 µM | [18] > 100 µM | [19] > 100 µM | [8] > 100 µM | [9] > 100 µM | [10] > 100 µM | [12] > 100 µM | [13] > 100 µM

CCC1NCC(=O)c2c1[nH]c1ccccc21 (stereo not given)
inactive: [1] > 100 µM | [14] > 100 µM | [15] > 100 µM | [4] > 100 µM | [16] > 100 µM | [6] > 100 µM | [7] > 100 µM | [18] > 100 µM | [19] > 100 µM | [8] > 100 µM | [9] > 100 µM | [10] > 100 µM | [11] > 100 µM | [12] > 100 µM | [13] > 100 µM

CN(N=O)C(=N)NC(=O)c1ccccc1
inactive: [1] > 100 µM | [3] > 100 µM | [14] 45.4 µM | [15] 51.5 µM | [4] > 100 µM | [5] > 100 µM | [16] > 100 µM | [17] 54.7 µM | [6] > 100 µM | [7] > 100 µM | [18] > 100 µM | [8] 49.2 µM | [9] 67.6 µM | [10] > 100 µM | [11] 4.33 µM | [12] > 100 µM | [13] 61.2 µM

Cc1c(N2CCOCC2)nc2ccc(Cl)cc2c1-c1ccccc1
inactive: [1] > 100 µM | [14] 21 µM | [15] 31.4 µM | [4] 89.9 µM | [16] > 100 µM | [6] > 100 µM | [7] 87.9 µM | [18] > 100 µM | [19] 40.9 µM | [8] 49.4 µM | [9] 56.9 µM | [10] 69.7 µM | [11] 34.4 µM | [12] 76.4 µM | [13] 91.8 µM

COc1ccc(NCc2cccc3c(=O)c4ccc(Cl)cc4oc23)cc1
inactive: [1] > 100 µM | [3] > 100 µM | [14] > 100 µM | [15] > 100 µM | [4] > 100 µM | [5] > 100 µM | [16] > 100 µM | [17] > 100 µM | [7] > 100 µM | [18] > 100 µM | [19] > 100 µM | [8] > 100 µM | [9] > 100 µM | [10] > 100 µM | [11] > 100 µM | [12] > 100 µM | [13] > 100 µM

O=C(CSCC(=O)N/N=C\c1ccc(F)cc1F)N/N=C\c1ccc(F)cc1F
inactive: [1] > 100 µM | [2] > 100 µM | [14] > 100 µM | [15] > 100 µM | [4] > 100 µM | [5] > 100 µM | [16] > 100 µM | [17] > 100 µM | [6] > 100 µM | [7] > 100 µM | [18] > 100 µM | [19] > 100 µM | [8] > 100 µM | [9] > 100 µM | [10] > 100 µM | [11] > 100 µM | [12] > 100 µM | [13] > 100 µM

COC(=O)c1cnn2c1ccc1ccccc12
inactive: [1] > 100 µM | [2] > 100 µM | [3] > 100 µM | [14] > 100 µM | [15] > 100 µM | [4] > 100 µM | [5] > 100 µM | [16] > 100 µM | [6] > 100 µM | [7] 61.5 µM | [18] 78.9 µM | [8] > 100 µM | [9] > 100 µM | [10] > 100 µM | [12] > 100 µM | [13] 55.3 µM

CCOc1ccc(/C=C/C(=O)c2sc(NNC(C)=O)nc2C)cc1
inactive: [1] > 100 µM | [14] > 100 µM | [15] > 100 µM | [4] > 100 µM | [16] > 100 µM | [6] > 100 µM | [7] > 100 µM | [18] > 100 µM | [19] > 100 µM | [8] > 100 µM | [10] > 100 µM | [12] > 100 µM | [13] 85.1 µM
